{
  "source": "patent EP3228630A1",
  "about": "“COMBINATION OF AN APELIN ANTAGONIST AND AN ANGIOGENESIS INHIBITOR FOR THE TREATMENT OF CANCER” (IMBA-Institut für Molekulare Biotechnologie GmbH, priority 2016, dated 2017)",
  "system": "primary human endothelial cells (HUVECs)",
  "conditions": "Apelin Pyr13 500nM, human VEGF 25ng/mL, 5 minutes, serum-free media",
  "procedure": "Antibody array pathway analysis: For the human phospho-kinase antibody array (R&D Systems), primary HUVEC (human umbilical vein endothelial cells) were cultured overnight with media supplemented with 0.75% of fetal bovine serum (FBS) followed by 15 minutes of media with 0.5%. The cells were then stimulated in serum-free media with either Apelin Pyr13 (BACHEM H-4568, 500nM), human VEGF (Peprotech, 25ng/mL), both of them or either for 5 minutes. 100 µg of cell lysate were added to the membrane and incubated overnight at 4°C with gentle agitation, following the manufacturer instructions. Films were scanned and the intensity of the bands quantified using ImageJ.",
  "data": [
    {"substance": "apelin-13", "values": [
      {"measurement": "pathways regulated (phospho-antibody array)", "result": "regulate similar pathways in endothelial cells"}
    ]}
  ]
}
